The results in this text go back to patent US20180256538A1, “METHOD FOR IMPROVING MITOPHAGY IN SUBJECTS” (Amazentis SA, priority 2017, published 2018).

For data set [1], the system named is myostatin/follistatin ratio. The data set can be described thus: ELISA of plasma muscle function markers, day 28 vs day -1. The format is in vivo, human. As to conditions: 500 mg/day for 28 days, day 28 vs day -1, compared with placebo. As for the experimental part:
Blood handling procedures: at each time point indicated in the table, a 6 mL blood sample was drawn into K2-EDTA coated tube. The blood samples were gently inverted a few times for complete mixing with the anticoagulant. The exact time of sample collection was recorded on the eCRF. Within 30 minutes following blood collection, each blood sample was centrifuged at 1500 g for 10 minutes at 4° C. 30 minutes after the centrifugation, the top layer of human plasma was transferred into 2 pre-labelled polypropylene tubes, containing approximately 1500 μL of plasma. Blood cells were not transferred. All sample tubes were clearly and appropriately labelled. Tubes were capped immediately from each time point and the plasma was be frozen in an upright position at approximately −80° C. for storage. Measurement of markers of muscle function: Markers of muscle function, including myostatin and follistatin, were measured using an ELISA based method. Every sample was analysed in technical duplicates together with a standard curve made with each isolated analyte. The amount of each marker was expressed as an absolute concentration in plasma (pg to μg/ml of plasma, depending on the analyte). Analysis of the levels of muscle biomarkers myostatin and follistatin, which are found in plasma of human subjects, was carried out using ELISA.
In general terms: In an ELISA, binding on a coated surface is turned into a signal by an enzyme label.

Data set [2] is described as follows: clinical. As to conditions: human, in vivo, po. As for the experimental part: Part B: The study was a double-blinded, randomized, multiple ascending dose study in 36 healthy elderly male and female volunteers. Each subject was randomised to receive study product or placebo for 28 days.
Part B: Repeated oral dose administration from day 1 to day 28 according to the randomization. The administration took place around 8:00 am with around 200 mL tap water, in a sitting position, and under fasting conditions.
After multiple dosing: Cmax, tmax, AUC0-24 h, t1/2 From the plasma concentration-time data, the following pharmacokinetic parameters will be determined, as data permit using non-compartmental methods: maximum observed plasma concentration (Cmax(ng/mL), time at which maximum observed plasma concentration (tmax) (h), area under the plasma concentration-time curve AUC(0-24 h) (ng/mL*h) and AUC0-∞) (ng/mL*h), and apparent terminal phase half-life (t1/2) (h).
(§1) Blood sampling was performed for urolithin A concentration measurements at the exact timepoints with an authorised time window described in the table below:
(§2) At each time point indicated in the table, a 6 mL blood sample was drawn into K2-EDTA coated tube. The blood samples were gently inverted a few times for complete mixing with the anticoagulant. The exact time of sample collection was recorded on the eCRF. Within 30 minutes following blood collection, each blood sample was centrifuged at 1500 g for 10 minutes at 4° C.
(§3) From the plasma concentration-time data, the following pharmacokinetic parameters were determined, as data permit using non-compartmental methods: maximum observed plasma concentration (Cmax), time at which maximum observed plasma concentration (tmax), area under the plasma concentration-time curve AUC(0-24 h) and AUC(0-∞), and apparent terminal phase half-life (t1/2).

Data set [3] concerns plasma acylcarnitines and other metabolites. The data set can be described thus: Plasma metabolomics (LC/MS/MS), day 28 vs day -1. Type of data set: in vivo, human. The settings on record: 500 mg/day for 28 days. As for the experimental part:
Blood handling procedures: at each time point indicated in the table, a 6 mL blood sample was drawn into K2-EDTA coated tube. The blood samples were gently inverted a few times for complete mixing with the anticoagulant. The exact time of sample collection was recorded on the eCRF. Within 30 minutes following blood collection, each blood sample was centrifuged at 1500 g for 10 minutes at 4° C. 30 minutes after the centrifugation, the top layer of human plasma was transferred into 2 pre-labelled polypropylene tubes, containing approximately 1500 μL of plasma. Blood cells were not transferred. All sample tubes were clearly and appropriately labelled. Tubes were capped immediately from each time point and the plasma was be frozen in an upright position at approximately −80° C. for storage. Measurement of metabolites: Samples were extracted and split into equal parts for analysis on the LC/MS/MS and Polar LC platforms. Proprietary software was used to match ions to an in-house library of standards for metabolite identification and for metabolite quantitation by peak area integration. A total of 781 metabolites were quantified. Metabolomics is the study of known measurable metabolites in a sample. […] The technique made use of HPLC-MS-MS analysis of plasma samples of subjects administered either placebo or urolithin A to characterise metabolites. 781 plasma metabolites which cover all of the biochemical processes of the body were investigated. […] The grey line in FIG. 8 corresponds to a fold change of 1, i.e. absence of effect. *P<0.05 correspond to a significant effect from D-1 (pre-dose) to D28, calculated after a repeated measures ANOVA. N=9 per group. Values represent the arithmetic mean of the fold changes.

Data set [4] in a line: clinical. As to conditions: human, in vivo, po; for AUC(0-t) / Cmax: both sexes. As for the experimental part:
Part A: The study was a double-blind, randomized, single ascending doses, study in 24 healthy elderly male and female volunteers. Each subject was randomized for two subsequent doses in three cohorts.
Part A: Single oral dose administration on D1 of each period according to the randomisation. The administration took place around 8:00 am with around 200 mL tap water, in sitting position, and under fasting conditions.
After single dosing: Cmax, tmax, AUC0-t, AUC0-∞, t1/2
as §1, §2, §3
FIG. 1 summarises certain plasma pharmacokinetic parameters of urolithin A following single dose oral administration at 250 mg, 500 mg, and 2000 mg urolithin A dosages.

Data set [5] deals with mitochondrial gene sets in vastus lateralis muscle. The data set can be described thus: Microarray / Gene Set Enrichment Analysis of gene expression in skeletal muscle biopsies after 28 days dosing. The format is in vivo, human. The settings on record: 500 mg/day for 28 days vs placebo group. As for the experimental part: Muscle biopsies were collected before the meal from the vastus lateralis muscle of the right leg in order to perform ex vivo measurements.
Muscle biopsies were collected on Day −1 and Day 28 at pre-dose under fasted state using the Bergstrom biopsy needle technique. The minimal amount of each muscle tissue sample was approximately […]. One third of the tissue was used for gene expression (≈50 mg), and was further divided into two equal portions: one portion for RNA analysis (≈25 mg) and one portion for DNA analysis (≈25 mg), both in a Safe-lock Tubes 2.0 ml, Eppendorf (part no. 0030.120.094). Muscle tissue was snap frozen using liquid nitrogen immediately after collection and further, long term storage will be in a −80° C. freezer. The mRNA was analysed by qPCR. Quantification of mtDNA over nuclear DNA provided another measure of mitochondrial abundance. The shipment was done in dry ice by specialized carrier. Temperatures were monitored using data logger during all transport.
Gene expression on available remaining muscle tissues samples was performed by microarrays.
Microarray analysis was carried out on skeletal muscle biopsies of human subjects administered urolithin A or placebo daily for 28 days. Approximately 30,000 gene transcripts were quantified by microarray in muscle biopsies and compared (day 28 vs. day −1). Gene Set Enrichment Analysis was conducted on 6166 gene sets. […]

Data set [6] in a line: Steady state plasma levels of total Urolithin A (parent + glucuronide and sulfate) over 28 days of dosing. The format is in vivo, human. The settings on record: 500 mg/day oral for 28 days, total Urolithin A in plasma. As for the experimental part: A double-blind, randomized, placebo controlled clinical trial was conducted in healthy elderly to establish the steady state levels of Urolithin A in plasma. Elderly subjects (61-82 years) (n=9), participated in each group of dosing. The subjects met all the inclusion and exclusion criteria of the study and signed informed consent. The subjects were overnight fasted and the plasma was collected in the morning before breakfast to assess steady state levels. Subjects were given a dose of Urolithin or placebo each morning for the 28 day trial, The urolithin A was given as softgel capsules containing 250 mg of Urolithin A in each capsule. Plasma samples were collected for assessment of Urolithin A steady state concentrations in the 4-week Urolithin A study at the following time points (Day 0, Day 7, Day 14, Day 28, Day 29, Day 31, and Day 32) were measured On day 28 the subjects were admitted to a Phase I clinical trial unit and the kinetics of Urolithin A absorption, and elimination following multiple 4-week dosing were followed until 96 hours following the last dosing on Day 28. Plasma was collected at the following time-points post last dosing with Urolithin A on Day 28: pre-dose, 1 hr, 2 hr, 4 hr, 6 hr, 8 hr, 12 hr, 24 hr, 72 hr and 96 hr. […] The exact time of sample collection was recorded on the eCRF (electronic case report from). […]

SMILES strings stand for the structures. Entries after “also recorded” stand apart in the source; their conditions may differ.

As usually defined, the AUC is concentration integrated over time. A low value points to less exposure. What is called Cmax is the peak of the concentration-time curve. As usually defined, the AUC(0-t) is exposure summed from dosing to a finite time, without extrapolation to infinity. The low end stands for low exposure, the high end for high exposure. Take `O=c1oc2cc(O)ccc2c2ccc(O)cc12` [Urolithin A]: the “change in plasma myostatin/follistatin ratio” value in data set [1] was “significantly lower; also recorded: significant decrease”. In the data set “clinical [2]” (both sexes, 500 mg), this compound displayed an AUC of 10.7 ng·h/mL and a Cmax of 1.25 ng/mL. Also, the “pharmacokinetic profile over the 28 day period (plasma concentrations 24 h after previous dose, days 7, 14, 28, 29)” value in the data set “clinical [2]” was “stable”. Besides, in data set [3], the plasma carnitine levels entry is reported as “did not change”. In addition, in data set [3] (day -1 to day 28, N=9), the “change in plasma acylcarnitines, short chain up to long chain (fold change)” value is reported as “overall decrease; also recorded: significant impact”; the “change in plasma pyruvate, lactate, acetoacetate, 3-hydroxyoctanoate and glucose (fold change)” value is recorded as “no significant change”. In the data set “clinical [4]” (500 mg), this compound yielded an AUC(0-t) of 13.3 ng·h/mL and a peak concentration (Cmax) of 1.24 ng/mL. In the data set “clinical [4]” (2000 mg), the AUC(0-t) amounted to 12.4 ng·h/mL and the Cmax amounted to 1.04 ng/mL. Further, in the data set “clinical [4]”, the “dose-normalised plasma Cmax and AUC0-36 h (plasma levels per mg dosed)” value was “higher plasma levels of urolithin A were observed per mg dosed”. Further, the “enrichment in GO_MITOCHONDRION genes expression” value in data set [5] is listed as “significant”. Also, the “steady state levels after end of the 4-week administration (Day 31 and Day 32)” value in data set [6] was “gradually declined”.
